Here are results for seven compounds from patent US20240182428A1, “PRODRUG OF CELECOXIB, PREPARATION METHOD THEREFOR AND APPLICATION THEREOF” (SHANGHAI INNOFORTUNE BOITECH CO. LTD., priority 2021, published 2024).

Converted amounts (≈) assume the structure as drawn. Read-outs that look alike come from different tables or passages of the source.

Data set [1] is described as follows: Ocular pharmacokinetic test: celecoxib content in eye tissues after ocular administration. The class given is in vivo, New Zealand rabbit. The conditions noted are these: after ocular administration of eye drops. The text has this:
To compare the content of the active compound celecoxib in each eye tissue to screen out lead compound with excellent pharmacokinetic characteristics after the ocular administration of SZY1907-P3, SZY1907-P4 and celecoxib in New Zealand rabbits.
Grouping: 9 male New Zealand rabbits were randomly divided into 3 groups of 3 animals each.
Dosage: According to the formulation of Guangzhou Zhongshan Ophthalmic Center, the concentration of SZY1907-P3/P4 in eye drops is 0.1%. Thus, the dose of SZY1907-P3/P4 was set to 0.100 mg/New Zealand rabbit and the dose of celecoxib was 0.075 mg/New Zealand rabbit (close to the equimolar dose of SZY1907-P3/P4).
The administration method was consistent with the clinical method, which was, ophthalmic administration, and the rabbit left and right eyes were simultaneously administrated.
0.1% of SZY1907-P3 eye drops: 0.01000 g of SZY1907-P3 was weighed, 0.00500 g of Tween-80 and 0.04500 g of polyoxyethylene 40 hydrogenated castor oil were added, and stirred with a glass rod until the solution was in an emulsion shape. 5 mL of distilled water was added slowly while stirring, dissolved for later use. 0.09000 g of sodium chloride and 0.00125 g of 80% benzalkonium chloride were weighed, 2 mL of distilled water was added, and stirred to dissolve. The two solutions was combined and adjusted the volume to 10 mL. […]

A short description of data set [2]: Stability (purity) of the prototype at different pH values. The class given is physicochemical.
A short description of data set [3]: Solubility of SZY1907-P3 prototype and salt forms at different pH values.
The conditions of data set [4]: Table 1; cited from earlier work.
The conditions of data set [5]: pH 7.

Take `Cc1ccc(-c2cc(C(F)(F)F)nn2-c2ccc(S(N)(=O)=O)cc2)cc1` [Celecoxib]: the “Drug concentration / distribution in ocular tissues (cornea, conjunctiva and aqueous humor), in words” value in data set [1] is listed as “relatively low”.
Regarding `Cc1ccc(-c2cc(C(F)(F)F)nn2-c2ccc(S(=O)(=O)NC(=O)CCN)cc2)cc1` [SZY1907-P3], the “Stability under storage conditions, in words” value in data set [2] was “relatively stable under storage conditions”. In data set [3], the “Solubility, in words” value is listed as “proper solubility” and the “pH dependence of solubility, in words” value was “a certain pH dependence”.
As for `CNCCC(=O)NS(=O)(=O)c1ccc(-n2nc(C(F)(F)F)cc2-c2ccc(C)cc2)cc1` [SZY1907-P4], in data set [1], the “Drug concentration / distribution in ocular tissues (cornea, conjunctiva and aqueous humor), in words” value was “almost not detected”.
As a reminder, the Solubility is the dissolved amount per volume that the medium holds. As to `NCCCCC(N)C(=O)O` (centres unmarked) [lysinate], the Pka in data set [4] is listed as 2.16. Also, the Solubility was determined as 40470 µg/mL in data set [3] (pH value 1); 80 µg/mL in data set [3] (pH value 2); 100 µg/mL in data set [3] (pH value 4); 90 µg/mL in data set [3] (pH value 6); 90 µg/mL in data set [3] (pH value 7); 100 µg/mL in data set [3] (pH value 8).
As to `Cc1ccc(-c2cc(C(F)(F)F)nn2-c2ccc(S(=O)(=O)NC(=O)CCN)cc2)cc1` [prototype], the Solubility in the data set “physchem” (aqueous buffer) is 100 µg/mL (≈ 221 µM); in the data set “physchem” (pH 1, simulated gastric fluid), 83500 µg/mL (≈ 184000 µM); in the data set “physchem” (pH 2, simulated gastric fluid) it was 1020 µg/mL (≈ 2250 µM); in the data set “physchem” (pH 4, aqueous buffer), 80 µg/mL (≈ 177 µM); in the data set “physchem” (pH 6, aqueous buffer) it was 80 µg/mL (≈ 177 µM); in “physchem” (pH 7, aqueous buffer), 90 µg/mL (≈ 199 µM). Besides, the Solubility in “physchem” (pH 8, aqueous buffer) was found to be 80 µg/mL (≈ 177 µM); in data set [3] (Table 2, pH value 6.5-7.0), 90 µg/mL; in data set [3] (Table 2, pH value 7.0-7.5), 100 µg/mL. For the same compound, the figures for the “Purity at Day 0” value in data set [2] (pH value 5.5-6.0), in data set [2] (pH value 6.5-7.0) and in data set [2] (pH value 7.0-7.5) were 99.85%, 99.88% and 99.81%, respectively. The “Purity at Day 1” value in data set [2] (pH value 5.5-6.0) worked out at 99.32%; in data set [2] (pH value 6.5-7.0) it was 100.00%; in data set [2] (pH value 7.0-7.5), 100.00%. For the same compound, the “Purity at Day 2” value in data set [2] (pH value 5.5-6.0) came out at 99.67%; in data set [2] (pH value 6.5-7.0), 99.74%; in data set [2] (pH value 7.0-7.5) it was 99.70%. In addition, the “Purity at Day 5” value in data set [2] (pH value 5.5-6.0) was found to be 99.63%; in data set [2] (pH value 6.5-7.0), 99.87%; in data set [2] (pH value 7.0-7.5) it was 99.84%.
fumarate came in with a Solubility in data set [5] of 90 µg/mL. The Pka in data set [4] is 3.03.
As to phosphate, the Solubility in data set [3] (pH value 1) amounted to 42900 µg/mL; in data set [3] (pH value 2) it was 25720 µg/mL; in data set [3] (pH value 4) it was 1280 µg/mL; in data set [3] (pH value 6), 470 µg/mL; in data set [3] (pH value 7), 90 µg/mL; in data set [3] (pH value 8), 100 µg/mL.
